Source: ChEMBL document CHEMBL1147799, “An integrated in silico 3D model-driven discovery of a novel, potent, and selective amidosulfonamide 5-HT1A agonist (PRX-00023) for the treatment of anxiety and depression” (J Med Chem, 2006)
Active and inactive are the calls of the source. No cut-off for these calls is given here.

How the values were obtained:
Mus musculus = assay: Decrease in basal rectal temperature in stress-induced hyperthermic 129S6/SvEvTac mouse at 20 mg/kg, po; format: functional, organism-based; set-up: dose 20 mg/kg
[1] = target: 5-hydroxytryptamine receptor 7 (Homo sapiens, UniProt P34969)
Description: Binding affinity to 5HT7 receptor by radioligand binding assay

Dopamine receptor = assay: Binding affinity to dopamine receptor by radioligand binding assay; format: protein assay
[2] = Binding affinity to histamine receptor by radioligand binding assay
[3] = Binding affinity to chemokine receptor by radioligand binding assay
[4] = Half life in Beagle dog at 3 mg/kg, po; format: ADME, organism-based, Canis lupus familiaris; set-up: dose 3 mg/kg, route oral; conditions: in vivo
Angiotensin II receptor = Angiotensin II receptor (Homo sapiens, UniProt P30556+P50052); assay: Binding affinity to angiotensin2 receptor by radioligand binding assay; format: protein assay
Cytochrome P450 2C9 = Cytochrome P450 2C9 (Homo sapiens, UniProt P11712); assay: Inhibition of human recombinant cytochrome P450 2C9; format: ADME; conditions: recombinant enzyme
[5] = target: 5-hydroxytryptamine receptor 1A (Rattus norvegicus, UniProt P19327); assay: Binding affinity to 5HT1A receptor in rat cerebral cortex by radioligand binding assay; format: tissue-based
Somatostatin receptor = assay: Binding affinity to somatostatin receptor by radioligand binding assay; format: protein assay
[6] = target: Opioid receptors; mu/kappa/delta (Homo sapiens, UniProt P41145+P41143+P35372); assay: Binding affinity to opioid receptor by radioligand binding assay; format: protein assay
Cytochrome P450 2C19 = Cytochrome P450 2C19 (Homo sapiens, UniProt P33261); assay: Inhibition of human recombinant cytochrome P450 2C19; format: ADME; conditions: recombinant enzyme
[7] = target: Sodium-dependent noradrenaline transporter (Homo sapiens, UniProt P23975); assay: Binding affinity to norepinephrine transporter by radioligand binding assay
[8] = Toxicity in po dosed Sprague-Dawley rat; format: organism-based; conditions: in vivo
[9] = Toxicity in po dosed Beagle dog; format: organism-based, Canis lupus familiaris; conditions: in vivo
[10] = Binding affinity to vasopressin receptor by radioligand binding assay
Cytochrome P450 3A4 = Cytochrome P450 3A4 (Homo sapiens, UniProt P08684); assay: Inhibition of human recombinant cytochrome P450 3A4; format: ADME; conditions: recombinant enzyme
Cytochrome P450 1A2 = Cytochrome P450 1A2 (Homo sapiens, UniProt P05177); assay: Inhibition of human recombinant cytochrome P450 1A2; format: ADME; conditions: recombinant enzyme
[11] = Binding affinity to vasoactive intestinal peptide receptor by radioligand binding assay
[12] = Ratio of drug level in brain against serum in Sprague-Dawley rat at 3 mg/kg, po or 1 mg/kg, iv after 1 hr; format: ADME, organism-based; conditions: read-out: BBR
[13] = target: Serotonin 3 receptor (5HT3) (Mus musculus, UniProt Q9JHJ5+P23979); assay: Binding affinity to mouse 5HT3 receptor by radioligand binding assay; format: protein assay
[14] = Binding affinity to neurotensin receptor by radioligand binding assay
[15] = Protein binding in human serum at 2 uM; format: ADME, organism-based; conditions: read-out: PPB (converted)
[16] = target: Voltage-gated inwardly rectifying potassium channel KCNH2 (Homo sapiens, UniProt Q12809); assay: Binding affinity to potassium channel by radioligand binding assay
[17] = target: 5-hydroxytryptamine receptor 6 (Homo sapiens, UniProt P50406); assay: Binding affinity to human 5HT6 receptor by radioligand binding assay
[18] = Binding affinity to adrenergic alpha receptor by radioligand binding assay

Chain of Cytochrome P450 3A4 (P08684 whole entry): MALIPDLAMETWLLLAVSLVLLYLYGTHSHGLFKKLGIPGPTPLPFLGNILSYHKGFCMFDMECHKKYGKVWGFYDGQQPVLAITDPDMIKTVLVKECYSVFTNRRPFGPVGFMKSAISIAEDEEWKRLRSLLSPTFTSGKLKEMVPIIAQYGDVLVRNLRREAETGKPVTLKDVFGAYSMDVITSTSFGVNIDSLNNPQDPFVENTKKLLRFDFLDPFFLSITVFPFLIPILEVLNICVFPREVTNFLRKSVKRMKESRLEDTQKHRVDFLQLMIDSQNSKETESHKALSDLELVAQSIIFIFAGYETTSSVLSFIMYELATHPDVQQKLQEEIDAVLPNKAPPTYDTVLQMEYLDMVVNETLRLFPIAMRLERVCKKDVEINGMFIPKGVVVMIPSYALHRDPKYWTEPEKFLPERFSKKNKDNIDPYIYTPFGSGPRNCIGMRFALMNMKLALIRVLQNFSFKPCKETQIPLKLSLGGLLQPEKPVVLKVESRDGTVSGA
Chain of Cytochrome P450 2C19 (P33261 whole entry): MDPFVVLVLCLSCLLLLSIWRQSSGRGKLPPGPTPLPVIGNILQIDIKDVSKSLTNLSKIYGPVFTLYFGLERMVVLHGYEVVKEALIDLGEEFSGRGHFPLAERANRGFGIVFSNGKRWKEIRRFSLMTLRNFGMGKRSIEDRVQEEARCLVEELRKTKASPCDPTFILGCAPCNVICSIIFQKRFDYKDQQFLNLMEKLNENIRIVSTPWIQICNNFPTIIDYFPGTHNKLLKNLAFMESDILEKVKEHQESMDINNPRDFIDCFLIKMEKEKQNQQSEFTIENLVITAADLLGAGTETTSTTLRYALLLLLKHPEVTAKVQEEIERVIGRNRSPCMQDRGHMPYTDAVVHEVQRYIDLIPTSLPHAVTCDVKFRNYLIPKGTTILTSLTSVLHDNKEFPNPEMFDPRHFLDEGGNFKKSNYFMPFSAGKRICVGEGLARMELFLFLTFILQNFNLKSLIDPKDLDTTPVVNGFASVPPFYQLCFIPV
Chain of 5-hydroxytryptamine receptor 6 (P50406 whole entry): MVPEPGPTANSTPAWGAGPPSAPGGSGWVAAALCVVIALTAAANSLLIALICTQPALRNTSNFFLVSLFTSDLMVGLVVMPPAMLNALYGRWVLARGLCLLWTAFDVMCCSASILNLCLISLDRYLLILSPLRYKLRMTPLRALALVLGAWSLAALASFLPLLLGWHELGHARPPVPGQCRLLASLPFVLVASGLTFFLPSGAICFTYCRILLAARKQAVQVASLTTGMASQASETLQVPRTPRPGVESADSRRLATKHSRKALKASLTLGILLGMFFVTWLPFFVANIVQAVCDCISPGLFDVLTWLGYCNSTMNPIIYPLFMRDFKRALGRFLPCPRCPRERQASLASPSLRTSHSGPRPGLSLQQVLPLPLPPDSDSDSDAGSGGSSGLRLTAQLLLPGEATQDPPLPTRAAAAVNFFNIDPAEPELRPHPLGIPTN
Chain of Cytochrome P450 1A2 (P05177 whole entry): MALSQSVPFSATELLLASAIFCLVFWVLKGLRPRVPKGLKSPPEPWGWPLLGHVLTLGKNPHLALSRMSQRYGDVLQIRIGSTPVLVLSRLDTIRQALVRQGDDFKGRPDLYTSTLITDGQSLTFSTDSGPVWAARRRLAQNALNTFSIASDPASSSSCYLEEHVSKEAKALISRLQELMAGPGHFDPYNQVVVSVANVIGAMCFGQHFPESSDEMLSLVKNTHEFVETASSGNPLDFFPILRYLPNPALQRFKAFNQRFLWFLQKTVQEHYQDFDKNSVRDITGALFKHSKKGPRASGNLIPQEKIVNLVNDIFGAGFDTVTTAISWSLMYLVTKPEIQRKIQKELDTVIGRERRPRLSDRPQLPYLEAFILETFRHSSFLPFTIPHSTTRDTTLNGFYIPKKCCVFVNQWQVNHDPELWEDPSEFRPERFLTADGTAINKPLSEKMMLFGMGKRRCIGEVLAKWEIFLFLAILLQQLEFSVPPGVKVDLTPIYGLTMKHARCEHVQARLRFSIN
Chain of 5-hydroxytryptamine receptor 1A (P19327 whole entry): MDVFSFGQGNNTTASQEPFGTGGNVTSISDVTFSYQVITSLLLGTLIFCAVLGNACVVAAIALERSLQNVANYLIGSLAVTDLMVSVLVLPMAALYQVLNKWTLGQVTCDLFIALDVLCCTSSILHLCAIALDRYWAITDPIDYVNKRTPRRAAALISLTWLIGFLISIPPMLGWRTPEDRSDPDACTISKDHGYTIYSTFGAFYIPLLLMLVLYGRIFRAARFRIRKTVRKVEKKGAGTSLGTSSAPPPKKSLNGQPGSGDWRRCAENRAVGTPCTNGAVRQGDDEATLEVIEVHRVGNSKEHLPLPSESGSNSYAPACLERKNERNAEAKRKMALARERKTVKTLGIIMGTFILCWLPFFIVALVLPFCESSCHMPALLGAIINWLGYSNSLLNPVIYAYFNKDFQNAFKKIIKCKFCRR
Chain of Cytochrome P450 2C9 (P11712 whole entry): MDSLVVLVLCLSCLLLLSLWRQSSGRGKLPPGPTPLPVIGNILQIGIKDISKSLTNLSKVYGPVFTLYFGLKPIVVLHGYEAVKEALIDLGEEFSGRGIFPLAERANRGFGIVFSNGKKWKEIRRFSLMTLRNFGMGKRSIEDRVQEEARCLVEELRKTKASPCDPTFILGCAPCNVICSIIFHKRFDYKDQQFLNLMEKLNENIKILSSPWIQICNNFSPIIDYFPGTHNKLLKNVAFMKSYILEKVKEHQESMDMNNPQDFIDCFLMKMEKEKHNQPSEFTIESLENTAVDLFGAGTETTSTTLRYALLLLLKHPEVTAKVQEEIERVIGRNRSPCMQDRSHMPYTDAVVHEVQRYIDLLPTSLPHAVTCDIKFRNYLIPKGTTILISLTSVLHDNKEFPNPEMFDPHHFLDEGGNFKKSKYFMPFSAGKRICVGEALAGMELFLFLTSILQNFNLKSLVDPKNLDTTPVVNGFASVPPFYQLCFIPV
Chain of Sodium-dependent noradrenaline transporter (P23975 whole entry): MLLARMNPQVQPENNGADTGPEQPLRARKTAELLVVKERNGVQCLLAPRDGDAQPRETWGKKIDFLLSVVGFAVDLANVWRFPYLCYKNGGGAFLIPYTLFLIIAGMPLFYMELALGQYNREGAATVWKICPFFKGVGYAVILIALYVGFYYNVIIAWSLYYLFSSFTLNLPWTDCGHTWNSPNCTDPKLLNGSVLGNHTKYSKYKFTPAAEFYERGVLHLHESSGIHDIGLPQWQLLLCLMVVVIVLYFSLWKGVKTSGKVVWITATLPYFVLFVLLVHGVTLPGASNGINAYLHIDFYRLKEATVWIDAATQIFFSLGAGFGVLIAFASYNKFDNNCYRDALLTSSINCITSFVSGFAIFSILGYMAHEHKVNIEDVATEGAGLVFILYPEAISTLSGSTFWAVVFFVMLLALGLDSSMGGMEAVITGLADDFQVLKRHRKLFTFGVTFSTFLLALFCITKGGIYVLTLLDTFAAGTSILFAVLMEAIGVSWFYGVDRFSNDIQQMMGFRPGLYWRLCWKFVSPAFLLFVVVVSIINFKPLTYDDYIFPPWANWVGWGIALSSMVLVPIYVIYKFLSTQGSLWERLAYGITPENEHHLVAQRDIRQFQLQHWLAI
Chain of Voltage-gated inwardly rectifying potassium channel KCNH2 (Q12809 whole entry): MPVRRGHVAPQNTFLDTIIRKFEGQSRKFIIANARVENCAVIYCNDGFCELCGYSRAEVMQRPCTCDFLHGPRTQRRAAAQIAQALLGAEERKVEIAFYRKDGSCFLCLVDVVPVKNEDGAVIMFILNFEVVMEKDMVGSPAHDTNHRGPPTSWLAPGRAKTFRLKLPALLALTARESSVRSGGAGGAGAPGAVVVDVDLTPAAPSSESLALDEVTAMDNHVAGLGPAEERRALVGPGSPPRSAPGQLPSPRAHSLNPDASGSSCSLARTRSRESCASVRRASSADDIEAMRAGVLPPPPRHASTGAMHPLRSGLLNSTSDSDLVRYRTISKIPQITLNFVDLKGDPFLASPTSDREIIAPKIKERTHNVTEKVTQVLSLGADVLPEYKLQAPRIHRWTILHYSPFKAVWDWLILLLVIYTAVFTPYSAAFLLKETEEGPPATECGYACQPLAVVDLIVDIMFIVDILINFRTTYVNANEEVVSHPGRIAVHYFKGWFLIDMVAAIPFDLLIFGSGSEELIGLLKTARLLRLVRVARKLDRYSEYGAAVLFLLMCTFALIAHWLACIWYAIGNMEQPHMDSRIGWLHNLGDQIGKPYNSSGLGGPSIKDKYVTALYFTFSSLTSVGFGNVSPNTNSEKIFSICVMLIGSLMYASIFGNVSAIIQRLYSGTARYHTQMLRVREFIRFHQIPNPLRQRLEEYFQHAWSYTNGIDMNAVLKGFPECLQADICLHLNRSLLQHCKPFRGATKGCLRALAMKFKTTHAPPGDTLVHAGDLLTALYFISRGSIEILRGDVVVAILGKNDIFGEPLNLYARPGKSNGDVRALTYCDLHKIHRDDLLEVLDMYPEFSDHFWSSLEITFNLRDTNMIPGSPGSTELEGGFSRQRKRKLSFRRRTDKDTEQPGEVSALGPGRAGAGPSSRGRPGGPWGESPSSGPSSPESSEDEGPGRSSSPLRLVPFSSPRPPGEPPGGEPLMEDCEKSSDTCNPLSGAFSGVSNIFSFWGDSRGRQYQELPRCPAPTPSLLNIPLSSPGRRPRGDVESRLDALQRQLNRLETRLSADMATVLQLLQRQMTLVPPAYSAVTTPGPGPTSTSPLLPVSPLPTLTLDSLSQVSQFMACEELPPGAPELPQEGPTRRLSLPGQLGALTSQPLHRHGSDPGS

With CC(=O)Nc1cccc(N2CCN(CCCCNS(=O)(=O)CC3CCCCC3)CC2)c1 [NALUZOTAN] the Activity (Mus musculus) was “Active”, the Ki [1] was 0.7 µM and the Ki (Dopamine receptor) was > 2 µM. The Ki [2] was > 2 µM, the Ki [3] was > 2 µM and the half-life [4] was 1.1 h. The Ki (Angiotensin II receptor) was > 2 µM, the Inhibition (Cytochrome P450 2C9) was “Not Active” and the Ki [5] was 0.017 µM. The Ki (Somatostatin receptor) was > 2 µM, the Ki [6] was > 2 µM and the Inhibition (Cytochrome P450 2C19) was “Not Active”. For the same compound, the Ki [7] was > 2 µM, the MTD [8] was 300 mg/kg and the MTD [9] was 600 mg/kg. For the same compound, the Ki [10] was > 2 µM, the Inhibition (Cytochrome P450 3A4) was “Not Active” and the Inhibition (Cytochrome P450 1A2) was “Not Active”. The Ki [11] was > 2 µM, the Kp at 1 h [12] was 0.5 and the Ki [13] was > 5 µM. The Ki [14] was > 2 µM, the fraction unbound at 2 µM [15] was 0.08 and the Ki [16] was > 2 µM. The Ki [17] was > 5 µM and the Ki [18] was > 2 µM.
